Tests used:
[1] = Pharmacokinetic study in rats after oral administration of CUT and MP-NPs, plasma by UHPLC-MS/MS; settings: male, Sprague Dawley, in vivo, n = 6, mean ± SD
Description: An Agilent 6430 triple quadrupole mass spectrometer with an ESI source interface (Agilent Technologies, Santa Clara, CA, United States) was used in conjunction with an Agilent 1290 UHPLC system (Agilent Technologies). A Waters ACQUITY HSS T3 Column (1.8 μm, 2.1 × 100 mm) (Waters, Manchester, UK) was also used for the separations. Gradient elution was performed using water (A) and methanol (B) as mobile phases. The gradient elution procedure was used for 0.0–1.0 min, 80%–80% B; 1.0–1.5 min, 80%–90% B; 1.5–3.0 min, 90%–90% B; 3.0–3.2 min, 90%–80% B; and 3.2–4 min, 80%–80% B. The analytical temperature was 35 °C, and the flow rate was 0.3 mL/min. An injection of 5 μL volume was administered, after which the needle was washed. Positive ion-mode analysis was performed for the samples. The capillary voltage was set to 4500 V, source temperature to 100 °C, and the desolvation temperature to 350 °C ([Wang et al., 2014]). High-purity nitrogen was used as the nebulizing gas, and nitrogen was used as the drying gas at a flow rate of 11 L/min. The Agilent Mass Hunter workstation was used to gather the experimental data ([Wang Z et al., 2023]).
A total of 12 male Sprague Dawley (SD) rats (weight: 220 ± 20 g) were provided by the Animal Experiment Center of Heilongjiang University of Traditional Chinese Medicine (Production license number: SYXK (Hei) 2021-010). The Laboratory Animal Ethics Committee of Heilongjiang University of Traditional Chinese Medicine approved the study (Approval No.: 2024053114).
Animals were randomly assigned to the following two experimental groups (n = 6 per group): CUT and MP-NPs. Treatments were administered once daily for seven consecutive days, with the plasma sampling performed at predetermined time points after administration. Dosage was calculated based on human-equivalent doses converted to rat pharmacokinetic parameters using interspecies scaling factors. The human-rat dose conversion procedure was used to determine the dose of CUT per rat to be 0.03 g. The recommended daily dosage for humans is 6 tablets. The dose of MP-NPs per rat was determined to be 0.06 g per rat using the human-rat dose conversion formula, whereas the dose of P. Melo for human usage was 3 g, with reference to the Pharmacopoeia of the People’s Republic of China 2025.
At 0.083, 0.25, 0.50, 1, 1.5, 2, 2.5, 3, 4, 6, 8, 12, and 24 h following oral administration of CUT and MP-NPs, 0.25 mL of plasma samples were sampled by rapidly collecting and centrifuging at 4 °C, followed by freezing at −20 °C for further analysis ([Yu et al., 2023]).
Blank plasma sample (100 μL) was vortexed for 60 s after adding 100 μL of IS. To guarantee complete extraction, 3 mL of dichloromethane was then added to each sample, followed by vortexing for 120 s. Subsequently, the samples were centrifuged for 10 min at 4 °C and 3,500 rpm. At 40 °C, the […] organic phase was carefully moved into a sterile tube, dried off with a mild stream of nitrogen gas, and then reconstituted in 100 μL of the original mobile phase. Following a 120 s vortex, the extracts were filtered through a 0.22 μm Millipore filter before subjecting them to quantitative analyses by injecting 5 μL of them into the UHPLC-MS/MS apparatus.
The established UHPLC-MS/MS method was applied to simultaneously measure the plasma concentrations of the three analytes in rats following dose administration. Pharmacokinetic parameters have attracted attention in exploring drug absorption and distribution. These parameters include T 1/2, C max, T max, and AUC (Table 6). The pharmacokinetics of SD rats following oral administration of CUT and MP-NPs were investigated through UHPLC-MS/MS. The plasma concentrations of the three analytes were calculated. […] The MP-NPs group reached C max more rapidly than the CUT group.

[2] = Stability of the analytes in rat plasma under different storage conditions; format: in vitro ADME; settings: for Stability (RE%) Post-preparative / Stability (RE%) Short-term / Stability (RE%) Long-term / Stability (RE%) Freeze-thaw: rat plasma, n = 6; for Stability (RE%) Post-preparative / Stability in rat plasma (in words): 12 h at 4 °C post-sample preparation; for Stability (RE%) Short-term: ambient temperature (25 °C) for 4 h; for Stability (RE%) Long-term / Stability in rat plasma (in words): storage at −20 °C; for Stability (RE%) Freeze-thaw: three freeze-thaw cycles (−20 °C/room temperature); for Stability in rat plasma (in words): 25 °C for 4 h, three freeze-thaw cycles
Description: Table 5 outlines the stability of LQC, MQC, and HQC in the rat plasma under different storage conditions.

[3] = CUT group, oral cucurbitacin tablet 0.03 g per rat
[4] = MP-NPs group, oral MP-NPs(PVP-K30) 0.06 g per rat
[5] = HQC (spiked 300.2 CuB, 600.2 CuD, 300.8 CuE ng/mL)
[6] = LQC (spiked 5.272 CuB, 25.30 CuD, 5.257 CuE ng/mL)
[7] = MQC (spiked 150.1 CuB, 300.1 CuD, 150.4 CuE ng/mL)

Structure (SMILES) | AUC(0-inf) [1, 3] [ng·h/mL] | AUC(0-t) [1, 3] [ng·h/mL] | Cmax [1, 3] [ng/mL] | Tmax [1, 3] [h] | half-life [1, 3] [h] | AUC(0-inf) [1, 4] [ng·h/mL] | AUC(0-t) [1, 4] [ng·h/mL] | Cmax [1, 4] [ng/mL] | Tmax [1, 4] [h] | half-life [1, 4] [h] | Stability (RE%) Post-preparative [2, 5] [%] | Stability (RE%) Short-term [2, 5] [%] | Stability (RE%) Long-term [2, 5] [%] | Stability (RE%) Freeze-thaw [2, 5] [%] | Stability (RE%) Post-preparative [2, 6] [%] | Stability (RE%) Short-term [2, 6] [%] | Stability (RE%) Long-term [2, 6] [%] | Stability (RE%) Freeze-thaw [2, 6] [%] | Stability (RE%) Post-preparative [2, 7] [%] | Stability (RE%) Short-term [2, 7] [%] | also measured
CC(=O)OC(C)(C)/C=C/C(=O)[C@](C)(O)[C@H]1[C@H](O)C[C@@]2(C)[C@@H]3CC=C4[C@@H](C=C(O)C(=O)C4(C)C)[C@]3(C)C(=O)C[C@]12C [CuE, cucurbitacin E] | 682 ± 126 | 603 ± 125 | 166 ± 13.8 | 2.25 ± 0.521 | 5.99 ± 1.23 | 973 ± 269 | 752 ± 150 | 236 ± 31.9 | 1.67 ± 0.612 | 7.05 ± 2.7 | −8.572 | −3.143 | −3.035 | −1.361 | 6.711 | 6.050 | 8.213 | 7.947 | −2.053 | −4.192 | Stability (RE%) Long-term [2, 7]: 5.814%; Stability (RE%) Freeze-thaw [2, 7]: 1.424%; Stability in rat plasma (in words) [2]: remained stable
CC(C)(O)/C=C/C(=O)[C@](C)(O)[C@H]1[C@H](O)C[C@@]2(C)[C@@H]3CC=C4[C@@H](C[C@H](O)C(=O)C4(C)C)[C@]3(C)C(=O)C[C@]12C [CuD, cucurbitacin D] | 1160 | 1030 | 339 ± 24.4 | 1.83 ± 0.683 | 5.33 ± 0.991 | 1480 | 1260 | 365 ± 69.9 | 1.75 ± 0.61 | 6.97 ± 2.92 | 7.032 | −5.861 | −2.272 | −7.765 | −3.854 | 4.262 | 5.336 | −3.242 | −8.805 | −4.154 | Stability (RE%) Long-term [2, 7]: −5.533%; Stability (RE%) Freeze-thaw [2, 7]: −8.420%; Stability in rat plasma (in words) [2]: remained stable
